Measurements published in patent US5126356A, “Piperidine compounds” (Adir et Compagnie, priority 1989, dated 1992).

Key:
type L calcium channels = biological target: T1, type L calcium channels (Oryctolagus cuniculus, UniProt P07293); experiment: Binding: displacement of [3H] PN 200-110 at the Ca2+ channel
T1 construct: microsomal fractions enriched with type L calcium channels; from tissue; host or cells: microsomal fractions

slow calcium channels = biological target: T2, slow calcium channels (Rattus norvegicus, UniProt P22002); experiment: Electrophysiology, whole cell patch clamp on A7 r5, slow calcium entry flow; assay type: cell-based
T2 construct: cell lines from the aorta of newly born rats; host or cells: A7 r5
Protocol: b) A7 r5 : cell lines from the aorta of newly born rats (ATCC No. CRL 1444), cultivated under the conditions indicated by the American Type Culture Collection (ATCC).
The studies were carried out on the A7 r5 cell line using the whole cell patch-clamp technique described by HAMILL O., MARTY A., WEHER E., SAKMANN B., SIGWORTH F. F., Improved patch clamp techniques for high resolution current recording from cells and cell from membrane patches. Pflugers Arch., 391, 85-100 (1981).

Beta adrenergic β = experiment: Binding to neurotransmitter receptors: beta adrenergic ([3H] DHA); details: read-out: K0.5
cardiac cells = experiment: Protection of cardiac cells from necrosis induced by intracellular acidosis (αHBDH release); assay type: cell-based, rat
Protocol: a) Cardiac cells: the cardiac cells are prepared from the hearts of newly born (3 days) Wistar rats in accordance with the technique of RENAUD JF., MEAUX JP., ROMEY G., SCHMID A., LAZDUNSKI M., Activation of the voltage-dependent Ca^2+ channels in rat heart cells by dihydropyridine derivative--Biochem. Biophys. Res. Commun., 125, 405-412 (1984).
The cardiomyocytes are isolated from the ventricles by enzymatic dissociation and cultured at 185,000 cells/cm^2. The cells are kept at 37° C. under an air/CO2 atmosphere (95 V/5 V) saturated with water. The cardiomyocytes are used between the 3rd and 8th day following culturing.
Intracellular acidosis is induced in accordance with the conditions published by RENAUD JF., Internal pH Na^+ and Ca^2+ regulation by trimetazidine during cardiac cell acidosis. Cardiovasc. Drugs and Ther., 1, 667-686 (1988) in the presence or absence of the products to be tested. Cellular necrosis is evaluated by measuring by spectrophotometry using the Boerhinger 124800 kit the kinetics of the release of a cytosolic enzyme α-hydroxybutyrate dehydrogenase (αHBDH) into the extracellular medium.
The signal measured corresponds to the amplitude of the necrosis induced by the acidosis. The values are the means ±SD. The number of experiments is indicated in parentheses.

Dopamine D1 = Dopamine D1 (Homo sapiens, UniProt P21728); experiment: Binding to neurotransmitter receptors: D1 ([3H] SCH 23390); details: read-out: K0.5
Chain of Dopamine D1 (P21728 whole entry): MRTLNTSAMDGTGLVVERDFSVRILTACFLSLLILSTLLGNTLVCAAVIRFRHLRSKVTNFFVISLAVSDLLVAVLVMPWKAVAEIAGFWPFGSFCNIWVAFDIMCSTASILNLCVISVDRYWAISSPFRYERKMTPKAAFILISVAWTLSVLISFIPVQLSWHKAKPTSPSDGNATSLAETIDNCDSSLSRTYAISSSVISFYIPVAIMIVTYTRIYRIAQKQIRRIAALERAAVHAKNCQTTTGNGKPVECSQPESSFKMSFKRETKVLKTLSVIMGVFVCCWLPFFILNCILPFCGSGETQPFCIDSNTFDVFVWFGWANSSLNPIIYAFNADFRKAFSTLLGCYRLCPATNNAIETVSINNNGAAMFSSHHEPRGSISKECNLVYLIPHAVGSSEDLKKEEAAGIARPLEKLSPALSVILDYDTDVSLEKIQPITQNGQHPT

beagle dogs [1] = experiment: Anti-ischaemic activity, Protocol 1: tight coronary stenosis in anaesthetised beagle dogs; assay type: in vivo, dog
Protocol: (§1) The studies are carried out on beagle dogs weighing from 9 to 12 kg which have been anaesthetised with pentobarbital sodium 30 mg/kg i.v., intubated and ventilated, and subjected to a thoracotomy at the 5th left intercostal space.
(§2) An electromagnetic ring connected to a Gould SP 2202 electromagnetic flow meter is placed around the circumflex branch of the left coronary artery, and an inflatable balloon is placed just downstream of that ring for the production of coronary stenoses under the control of the coronary output.
(§3) Piezoelectric crystals (5 MHz) connected to a Triton sonomicrometer are implanted in the subendocardium of the left ventricular wall, in an area that is to become ischaemic, for measuring local myocardial contractility; epicardial electrodes are placed in the same area for recording the epicardial electrocardiogram.
Myocardial ischaemia is induced by tight coronary stenosis that reduces coronary output by about 70%.
The same coronary stenosis, the effects of which are reversible and reproducible, is produced in the same animal for two periods of 10 minutes, separated by a recovery period of 45 minutes.
Treatments are administered intravenously 2 minutes after coronary stenosis:
injection of solvent after the first coronary stenosis, which serves as control,
injection of the test product after the second coronary stenosis.
(§4) Myocardial contractility is evaluated by the proportion of systolic shortening of the lengths of the segments between the piezoelectric crystals.
(§5) Hypokinesia in the ischaemic area is expressed as percentage variation relative to the contractility measured in the control period.
(§6) Modification of the epicardial ECG in the ischaemic area consists in raising the epicardial ST segment measured in millivolts (mV).

Alpha adrenergic α1 = experiment: Binding to neurotransmitter receptors: alpha1 adrenergic ([3H] Prazosin); details: α1, [3H] Prazosin; read-out: K0.5
5HT1A = biological target: T3, 5HT1A (Homo sapiens, UniProt P08908); experiment: Binding to neurotransmitter receptors: 5HT1A ([3H] 8 OH DPAT); details: read-out: K0.5
T3 sequence (P08908 1-422): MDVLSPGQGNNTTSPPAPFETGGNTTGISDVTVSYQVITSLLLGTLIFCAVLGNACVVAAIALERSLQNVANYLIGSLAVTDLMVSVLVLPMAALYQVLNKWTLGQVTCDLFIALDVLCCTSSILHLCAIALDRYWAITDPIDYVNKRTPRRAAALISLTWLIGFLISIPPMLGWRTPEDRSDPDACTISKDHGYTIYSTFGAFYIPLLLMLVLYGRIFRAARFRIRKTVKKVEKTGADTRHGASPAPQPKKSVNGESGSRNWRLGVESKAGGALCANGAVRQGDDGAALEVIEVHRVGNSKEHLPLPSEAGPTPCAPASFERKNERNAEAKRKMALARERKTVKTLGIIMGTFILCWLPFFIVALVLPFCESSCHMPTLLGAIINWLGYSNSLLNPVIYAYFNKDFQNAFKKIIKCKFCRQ

beagle dogs [2] = experiment: Anti-ischaemic activity, Protocol 2: moderate coronary stenosis plus auricular pacing in anaesthetised beagle dogs; assay type: in vivo, dog; details: Pacing 2 minutes, 1 mg/kg i.v.
Protocol: as §1, §2, §3
Two electrodes are sewn at the right auricle in the region of the sinoauricular node for the protocols including pacing sequences. […]
as §4, §5, §6

type L Ca^2+ channel = biological target: T4, type L Ca^2+ channel (Rattus norvegicus, UniProt P22002); experiment: Inhibition of 45Ca2+ influx through the Ca2+ channel in A7 r5 cells; assay type: cell-based
T4 construct: cell lines from the aorta of newly born rats; host or cells: A7 r5

5HT2 = 5HT2 (Homo sapiens, UniProt P28223); experiment: Binding to neurotransmitter receptors: 5HT2 ([3H] Ketanserine)
Chain of 5HT2 (P28223 whole entry, species assumed): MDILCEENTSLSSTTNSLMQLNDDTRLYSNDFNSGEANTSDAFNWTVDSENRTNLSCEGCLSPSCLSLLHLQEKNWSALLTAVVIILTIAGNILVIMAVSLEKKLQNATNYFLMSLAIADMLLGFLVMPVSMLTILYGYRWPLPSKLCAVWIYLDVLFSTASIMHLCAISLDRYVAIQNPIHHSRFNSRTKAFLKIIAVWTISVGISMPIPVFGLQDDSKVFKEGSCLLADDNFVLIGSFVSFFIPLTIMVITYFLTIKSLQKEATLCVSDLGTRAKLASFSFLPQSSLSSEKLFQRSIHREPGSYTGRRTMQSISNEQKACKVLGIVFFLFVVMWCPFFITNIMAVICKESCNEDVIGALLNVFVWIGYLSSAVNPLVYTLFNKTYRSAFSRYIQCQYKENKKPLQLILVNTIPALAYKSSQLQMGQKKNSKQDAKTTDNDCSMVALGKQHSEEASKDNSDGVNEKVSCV

T1 sequence (P07293 whole entry): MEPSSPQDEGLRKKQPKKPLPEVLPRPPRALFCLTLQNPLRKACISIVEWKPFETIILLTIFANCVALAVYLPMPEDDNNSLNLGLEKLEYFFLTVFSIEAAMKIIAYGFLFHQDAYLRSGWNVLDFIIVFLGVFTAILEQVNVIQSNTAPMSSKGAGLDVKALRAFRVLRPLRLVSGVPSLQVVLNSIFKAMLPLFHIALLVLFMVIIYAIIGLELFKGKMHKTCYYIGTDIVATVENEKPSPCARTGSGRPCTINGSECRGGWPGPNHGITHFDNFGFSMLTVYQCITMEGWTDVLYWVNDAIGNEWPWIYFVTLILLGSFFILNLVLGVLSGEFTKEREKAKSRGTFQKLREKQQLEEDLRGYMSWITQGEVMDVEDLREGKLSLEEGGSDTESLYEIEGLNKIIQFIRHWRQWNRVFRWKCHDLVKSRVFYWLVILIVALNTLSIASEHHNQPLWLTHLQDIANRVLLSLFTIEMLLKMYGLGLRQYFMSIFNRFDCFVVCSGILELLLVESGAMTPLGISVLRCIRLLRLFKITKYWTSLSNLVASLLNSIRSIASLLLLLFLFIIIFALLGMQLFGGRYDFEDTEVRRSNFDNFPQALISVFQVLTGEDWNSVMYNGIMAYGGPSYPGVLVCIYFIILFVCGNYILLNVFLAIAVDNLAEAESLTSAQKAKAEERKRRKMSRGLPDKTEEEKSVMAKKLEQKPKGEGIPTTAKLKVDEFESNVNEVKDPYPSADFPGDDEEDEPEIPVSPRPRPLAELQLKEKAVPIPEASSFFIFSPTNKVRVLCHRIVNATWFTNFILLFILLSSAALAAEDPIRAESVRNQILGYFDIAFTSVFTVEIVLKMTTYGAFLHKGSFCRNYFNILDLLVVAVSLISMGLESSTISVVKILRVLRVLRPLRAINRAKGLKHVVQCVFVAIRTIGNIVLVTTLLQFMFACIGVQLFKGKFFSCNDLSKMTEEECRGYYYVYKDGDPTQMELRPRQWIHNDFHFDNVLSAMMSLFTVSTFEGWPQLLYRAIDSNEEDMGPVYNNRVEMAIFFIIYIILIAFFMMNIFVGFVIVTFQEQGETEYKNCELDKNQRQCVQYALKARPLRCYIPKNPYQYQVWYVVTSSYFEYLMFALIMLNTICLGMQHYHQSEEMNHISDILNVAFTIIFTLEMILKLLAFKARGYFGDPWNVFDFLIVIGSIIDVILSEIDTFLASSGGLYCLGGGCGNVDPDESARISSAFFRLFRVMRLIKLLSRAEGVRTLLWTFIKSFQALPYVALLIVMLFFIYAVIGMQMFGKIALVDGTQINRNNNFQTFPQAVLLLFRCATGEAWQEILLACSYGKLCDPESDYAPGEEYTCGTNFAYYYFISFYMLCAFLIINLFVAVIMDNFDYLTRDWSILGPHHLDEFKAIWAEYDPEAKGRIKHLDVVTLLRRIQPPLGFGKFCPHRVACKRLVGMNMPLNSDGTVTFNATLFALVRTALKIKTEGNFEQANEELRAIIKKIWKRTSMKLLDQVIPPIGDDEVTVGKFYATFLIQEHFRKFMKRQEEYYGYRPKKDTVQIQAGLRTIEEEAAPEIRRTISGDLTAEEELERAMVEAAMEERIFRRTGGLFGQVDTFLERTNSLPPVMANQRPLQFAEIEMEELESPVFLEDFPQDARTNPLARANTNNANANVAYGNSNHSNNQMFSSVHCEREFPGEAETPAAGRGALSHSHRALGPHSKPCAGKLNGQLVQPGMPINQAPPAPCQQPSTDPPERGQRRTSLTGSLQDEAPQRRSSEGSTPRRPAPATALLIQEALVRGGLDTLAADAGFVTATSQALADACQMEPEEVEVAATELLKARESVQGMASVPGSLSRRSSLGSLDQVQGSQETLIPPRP
T1 sequence (P13806 27-960 partner limits assumed): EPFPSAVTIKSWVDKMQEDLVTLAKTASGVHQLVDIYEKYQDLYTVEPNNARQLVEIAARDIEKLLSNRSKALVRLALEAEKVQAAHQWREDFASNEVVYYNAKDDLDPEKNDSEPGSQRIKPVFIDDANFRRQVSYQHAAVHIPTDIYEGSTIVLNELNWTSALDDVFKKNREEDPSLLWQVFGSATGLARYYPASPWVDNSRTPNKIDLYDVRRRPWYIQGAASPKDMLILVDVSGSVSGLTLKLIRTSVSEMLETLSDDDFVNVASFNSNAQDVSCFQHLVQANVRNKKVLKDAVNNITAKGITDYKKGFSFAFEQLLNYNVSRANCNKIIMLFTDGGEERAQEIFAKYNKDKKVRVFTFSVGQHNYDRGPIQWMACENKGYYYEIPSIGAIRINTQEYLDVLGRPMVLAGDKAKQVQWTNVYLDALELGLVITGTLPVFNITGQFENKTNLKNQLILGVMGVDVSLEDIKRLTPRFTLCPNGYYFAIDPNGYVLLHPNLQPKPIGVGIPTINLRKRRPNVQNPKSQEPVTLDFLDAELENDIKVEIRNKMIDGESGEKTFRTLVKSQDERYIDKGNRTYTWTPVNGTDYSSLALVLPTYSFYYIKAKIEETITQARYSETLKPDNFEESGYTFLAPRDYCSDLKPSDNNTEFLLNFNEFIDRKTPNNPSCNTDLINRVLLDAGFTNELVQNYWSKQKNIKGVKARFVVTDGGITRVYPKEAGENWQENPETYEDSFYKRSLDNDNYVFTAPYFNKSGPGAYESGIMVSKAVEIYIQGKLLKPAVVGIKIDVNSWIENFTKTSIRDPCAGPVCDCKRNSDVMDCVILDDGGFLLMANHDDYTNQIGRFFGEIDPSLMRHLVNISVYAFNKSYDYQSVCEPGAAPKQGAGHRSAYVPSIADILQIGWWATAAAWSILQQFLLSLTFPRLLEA
T1 sequence (P13806 961-1106 partner limits assumed): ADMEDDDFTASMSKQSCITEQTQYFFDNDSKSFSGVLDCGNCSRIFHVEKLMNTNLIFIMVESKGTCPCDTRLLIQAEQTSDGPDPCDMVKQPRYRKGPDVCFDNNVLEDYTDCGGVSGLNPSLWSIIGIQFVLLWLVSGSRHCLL
T1 sequence (P19517 whole entry partner): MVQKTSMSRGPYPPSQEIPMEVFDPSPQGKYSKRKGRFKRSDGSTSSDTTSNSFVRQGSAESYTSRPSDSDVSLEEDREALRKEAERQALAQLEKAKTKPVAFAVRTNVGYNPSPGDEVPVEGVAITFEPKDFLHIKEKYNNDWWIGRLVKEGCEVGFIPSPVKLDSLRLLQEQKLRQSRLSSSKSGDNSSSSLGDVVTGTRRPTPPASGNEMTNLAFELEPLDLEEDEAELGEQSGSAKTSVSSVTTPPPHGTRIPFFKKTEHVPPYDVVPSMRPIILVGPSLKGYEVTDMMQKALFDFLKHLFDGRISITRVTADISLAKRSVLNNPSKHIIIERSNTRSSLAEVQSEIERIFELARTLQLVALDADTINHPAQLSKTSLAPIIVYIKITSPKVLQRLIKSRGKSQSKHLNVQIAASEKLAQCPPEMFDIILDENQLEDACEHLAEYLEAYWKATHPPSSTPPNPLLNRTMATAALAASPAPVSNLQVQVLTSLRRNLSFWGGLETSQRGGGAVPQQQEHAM
T1 sequence (P19518 whole entry partner): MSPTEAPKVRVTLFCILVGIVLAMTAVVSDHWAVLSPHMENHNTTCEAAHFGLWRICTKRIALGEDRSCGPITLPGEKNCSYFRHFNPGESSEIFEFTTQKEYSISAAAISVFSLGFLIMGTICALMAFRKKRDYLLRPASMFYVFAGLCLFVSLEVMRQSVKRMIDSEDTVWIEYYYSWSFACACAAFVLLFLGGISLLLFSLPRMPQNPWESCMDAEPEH

COc1ccc(CSC2CCN(CC=Cc3ccccc3)CC2)c(OC)c1OC [Example 1, 4-(2,3,4-trimethoxybenzylthio)-1-cinnamylpiperidine]
binding to the slow Ca2+ channel (in words) (type L calcium channels): binds to the receptors of the slow Ca^2+ channel | IC50 (type L calcium channels; [3H] PN 200-110, read-out: K0.5 (50% of specifically fixed radioactivity displaced)): 1000 nM | inhibition of slow calcium channels / Ca2+ entry flow (in words) (slow calcium channels): inhibition of the Ca^2+ entry flow in a dose-dependent manner | EC50 (slow calcium channels; whole cell patch clamp, A7 r5, read-out: semi-effect (EC50), inhibition of the slow calcium entry flow): 10000 nM | IC50 (Beta adrenergic β): 2000 nM | activity at 0.3 µM (cardiac cells; Rattus norvegicus, Cardiomyocyte, 0.3 μM, control after acidosis alone 100%, before acidosis 0%, mean ±SD, read-out: amplitude of the necrosis induced by the acidosis): 144% | activity at 1 µM (cardiac cells; Rattus norvegicus, Cardiomyocyte, 1 μM, control after acidosis alone 100%, mean ±SD, read-out: amplitude of the necrosis induced by the acidosis): 21.9% | activity at 3 µM (cardiac cells; Rattus norvegicus, Cardiomyocyte, 3 μM, control after acidosis alone 100%, mean ±SD, read-out: amplitude of the necrosis induced by the acidosis): 1.42% | activity at 10 µM (cardiac cells; Rattus norvegicus, Cardiomyocyte, 10 μM, control after acidosis alone 100%, mean ±SD, read-out: amplitude of the necrosis induced by the acidosis): 2.14% | activity at 30 µM (cardiac cells; Rattus norvegicus, Cardiomyocyte, 30 μM, control after acidosis alone 100%, mean ±SD, read-out: amplitude of the necrosis induced by the acidosis): 9.68% | minimal effective concentration (cardiac cells; Rattus norvegicus, 1 μM and above, read-out: concentration at which protection occurs): ≥ 1 µM | protection of cells with respect to intracellular acidosis (in words) (cardiac cells; in vitro): protects the cardiac cell from necrosis induced by intracellular acidosis | IC50 (Dopamine D1): 300 nM | Contractility delta % (beagle dogs [1]; 10 minutes after treatment, 1 mg/kg i.v., solvent -44.5): -24.3% | Epicardial ST delta mV (beagle dogs [1]; 10 minutes after treatment, 1 mg/kg, solvent +4): +2 mV | Epicardial ST delta mV (beagle dogs [1]; Stenosis (before treatment), 1 mg/kg group, solvent +4.5): +4.5 mV | Contractility delta % (beagle dogs [1]; Stenosis (before treatment), 1 mg/kg i.v. group, solvent -45.8): -45% | anti-ischaemic effect (in words) (beagle dogs [1]; intravenous, Protocols 1 and 2): markedly reduces both preventively and curatively the electrocardiographic modifications and the modifications of myocardial contractility induced by ischaemia | IC50 (Alpha adrenergic α1): 2000 nM | IC50 (5HT1A): 3000 nM | Epicardial ST delta mV (beagle dogs [2]; solvent +6.0): +0.5 mV | Contractility delta % (beagle dogs [2]; solvent -62.6): -42.2% | inhibition of Ca2+ influx (in words) (type L Ca^2+ channel): inhibition of the influx of Ca^2+ | IC50 (type L Ca^2+ channel; 45Ca2+ influx, A7 r5 cells, read-out: K0.5 (50% of 45Ca2+ influx inhibited)): 3000 nM | IC50 (5HT2): 1000 nM
